We go through two compounds from patent US10874650B1 (Ferrer Medical Innovations, LLC, priority 2020, dated 2020).

Experiment [1] relates to avian H7N9 influenza virus. The conditions noted are these: mice; cited from earlier work.
Experiment [2] relates to divergent influenza A strains and influenza B strain. The conditions noted are these: cited from earlier work.
For experiment [3], the system named is SARS-CoV-2, USA-WA1/2020 strain. It is filed as cell-based. Conditions: nasal spray 90%, ethanol 67.5%.

Structures can show the parent of a compound that is named as a salt. Marks after values point to notes of the source that are not given here.

Take `CN(C)CCC(c1ccc(Cl)cc1)c1ccccn1` (stereo not shown) [Chlorpheniramine, chlorpheniramine maleate]: in experiment [1], the “protection from fatal challenge” value is reported as “protects mice from fatal challenge”. In addition, the “inhibitory activity against influenza” value in experiment [2] is recorded as “potent inhibitory activity”.

On to `CCO` [Ethanol], for which the “Virus Titer” value in experiment [3] (after 25 minutes incubation with virus at 22±2° C., average of three replicates ± standard deviation) is on record as 1.0 ± 0.6 Log10 CCID50/mL. In experiment [3] (reduction of virus compared with virus control (water), 25 minutes incubation at 22±2° C.), the “Log Reduction Value” is given as 3.2***.
